The values below come from PubChem BioAssay (NCI).

Several values for one entry are separate records, joined by “and”; a condition that tells them apart may be missing. Identical values can stand only once.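 96-well plates; 48 h exposure; 5 concentrations. Endpoints by linear interpolation between flanking doses. Not reached: highest tested concentration assigned. GI50 = concentration required for 50% inhibition of growth. At the TGI there is no net growth.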 Bounds are passed on as bounds.

Test systems include DU-145 prostate; A498 renal; COLO 205 colon; IGROV1 ovarian; HT29 colon; UO-31 renal; 786-0 renal; CAKI-1 renal; HOP-92 NSCLC; EKVX NSCLC; SF-268 CNS; BT-549 breast; OVCAR-4 ovarian; NCI-H226 lung.
Assay in all cases: inhibition of tumour cell growth, NCI panel, 48 h

Consider `Cc1ccsc1/C=N/NC1=NCCN1`, for which the TGI in the test on DU-145 prostate, in the test on A498 renal, with COLO 205 colon, in the test with IGROV1 ovarian, in the test on HT29 colon and in the test on UO-31 renal was > 100 µM each time. Also, the TGI in the test with 786-0 renal, in the test on CAKI-1 renal, in the test with HOP-92 NSCLC, in the test on EKVX NSCLC, with SF-268 CNS and in the test with BT-549 breast was > 100 µM each time. Also, the TGI in the test on OVCAR-4 ovarian and in the test with NCI-H226 lung was > 100 µM each time.

Turning to `O=[N+]([O-])c1cc(Br)cc2cc(Cl)cnc12`, the TGI in the test with DU-145 prostate is > 100 µM; with A498 renal it was > 100 µM; in the test with COLO 205 colon, > 100 µM; in the test with IGROV1 ovarian, 24.2 µM; in the test on HT29 colon it was > 100 µM; in the test with UO-31 renal, > 100 µM. Besides, the TGI in the test with 786-0 renal is > 100 µM; in the test with CAKI-1 renal, > 100 µM; in the test on HOP-92 NSCLC it was 6.36 µM; with EKVX NSCLC, > 100 µM; with SF-268 CNS it was > 100 µM; in the test on BT-549 breast, > 100 µM. Moreover, the TGI with OVCAR-4 ovarian and in the test with NCI-H226 lung was > 100 µM in each case.

Consider `O=c1oc2ccc([N+](=O)[O-])cc2nc1/C=C(\O)c1ccccc1`, for which the TGI in the test on DU-145 prostate, in the test on A498 renal, with COLO 205 colon, in the test on IGROV1 ovarian, in the test with HT29 colon and with UO-31 renal was > 100 µM in each case. Moreover, the TGI with 786-0 renal, in the test on CAKI-1 renal, with HOP-92 NSCLC, in the test with EKVX NSCLC, with SF-268 CNS and with BT-549 breast was > 100 µM each time. Further, the TGI in the test on OVCAR-4 ovarian and in the test on NCI-H226 lung was > 100 µM each time.

As to `COc1ccc(/C=C2/N=C(N/N=C\C(O)C(O)C(O)CO)NC2=O)cc1` (configuration not stated), the TGI with DU-145 prostate, in the test on A498 renal, with COLO 205 colon, with IGROV1 ovarian, in the test with HT29 colon and with UO-31 renal was > 100 µM in each case. Also, the TGI in the test on 786-0 renal, in the test on CAKI-1 renal, with HOP-92 NSCLC, in the test on EKVX NSCLC, in the test with SF-268 CNS and in the test with BT-549 breast was > 100 µM in each case. Besides, the TGI with OVCAR-4 ovarian and in the test with NCI-H226 lung was > 100 µM throughout. The GI50 in the test with A498 renal is > 100 µM and 32.6 µM; in the test with OVCAR-4 ovarian it was 40.9 µM and > 100 µM.

As for `CC(C)C[S+]1C2=C([O-])CC(C)(C)CC2=Nc2ccccc21` (configuration not stated), the TGI in the test on DU-145 prostate, in the test on A498 renal, with COLO 205 colon, in the test on IGROV1 ovarian, in the test on HT29 colon and with UO-31 renal was > 100 µM throughout. Further, the TGI in the test with 786-0 renal, in the test on CAKI-1 renal, in the test on HOP-92 NSCLC, in the test on EKVX NSCLC, with SF-268 CNS and in the test with BT-549 breast was > 100 µM each time. The TGI in the test on OVCAR-4 ovarian and in the test on NCI-H226 lung was > 100 µM throughout.

As to `COc1ccc(C=Nc2ccc(-c3nc4ccccc4s3)cc2)cc1OC`, the TGI in the test with DU-145 prostate was > 100 µM; with A498 renal, 46.2 µM; in the test with COLO 205 colon it was 39.6 µM; with IGROV1 ovarian, 86.4 µM; in the test on HT29 colon, > 100 µM; in the test on UO-31 renal, > 100 µM. Also, the TGI in the test with 786-0 renal is 44.3 µM; in the test on CAKI-1 renal it was > 100 µM; in the test on HOP-92 NSCLC, 53.5 µM; with EKVX NSCLC, > 100 µM; with SF-268 CNS, > 100 µM; in the test with BT-549 breast, > 100 µM. The TGI with OVCAR-4 ovarian was > 100 µM; with NCI-H226 lung, 85.4 µM.

In the case of `COc1ccc(-c2nc(-c3ccc(OC)cc3)n(-c3ccccc3)n2)cc1`, the TGI with DU-145 prostate, in the test with A498 renal, in the test on COLO 205 colon, in the test with IGROV1 ovarian, in the test on HT29 colon and in the test on UO-31 renal was > 100 µM in each case. The TGI in the test on 786-0 renal, in the test on CAKI-1 renal, with HOP-92 NSCLC, in the test with EKVX NSCLC, with SF-268 CNS and with BT-549 breast was > 100 µM throughout. For the same compound, the TGI in the test with OVCAR-4 ovarian and in the test on NCI-H226 lung was > 100 µM each time.

With `O=C(O)c1cc(N=Nc2ccc([N+](=O)[O-])cc2)ccc1O`, the TGI is > 100 µM with DU-145 prostate; 46.6 µM in the test on A498 renal; > 100 µM with COLO 205 colon; > 100 µM in the test with IGROV1 ovarian; > 100 µM in the test on HT29 colon; 67.6 µM in the test on UO-31 renal. The TGI in the test on 786-0 renal was > 100 µM; with CAKI-1 renal, > 100 µM; with HOP-92 NSCLC it was 56.9 µM; with EKVX NSCLC it was > 100 µM; in the test on SF-268 CNS it was > 100 µM; with BT-549 breast it was > 100 µM. Further, the TGI came out at 80.4 µM in the test on OVCAR-4 ovarian and 79.4 µM with NCI-H226 lung.

As to `CC1=C(C(=O)NNC(=O)Cc2ccccc2)CC(C(=O)NNC(=O)Cc2ccccc2)=C(C)N1`, the TGI in the test on DU-145 prostate, with A498 renal, with COLO 205 colon, with IGROV1 ovarian, in the test on HT29 colon and with UO-31 renal was > 100 µM throughout. The TGI in the test with 786-0 renal, in the test on CAKI-1 renal, in the test on HOP-92 NSCLC, in the test on EKVX NSCLC, in the test with SF-268 CNS and in the test on BT-549 breast was > 100 µM throughout. Also, the TGI in the test with OVCAR-4 ovarian and in the test with NCI-H226 lung was > 100 µM in each case.

Regarding `CCCNC1=C2C[C@@H](C)C[C@@H](OC)[C@@H](OC(=O)CCCN)[C@H](C)/C=C(\C)[C@@H](OC(N)=O)[C@H](OC)/C=C\C=C(/C)C(=O)NC(=CC1=O)C2=O`, the TGI with DU-145 prostate was found to be 26.3 µM; in the test with A498 renal, 37.1 µM; with COLO 205 colon, 12.1 µM; with IGROV1 ovarian, 34.8 µM; in the test on HT29 colon, 22.9 µM; with UO-31 renal it was 36.1 µM. For the same compound, the TGI in the test with 786-0 renal stood at 53.9 µM; with CAKI-1 renal, 38.5 µM; in the test with HOP-92 NSCLC it was 25.8 µM; in the test with EKVX NSCLC, 37.5 µM; with SF-268 CNS, 36.7 µM; in the test on BT-549 breast, 29.4 µM. The TGI came out at 39.4 µM in the test on OVCAR-4 ovarian and 39.8 µM in the test on NCI-H226 lung.
